The source of these data is US8420653B2, “Pyrimidine compounds and their uses” (Orchid Chemicals & Pharmaceuticals Limited, priority 2008, dated 2013).

Assay [1] concerns TNF- α. Nature of the assay: TNF-α IC50 (Table XVa, assay not given). It is filed as cell-based. The settings on record: Table XVa summary.
Assay [2] deals with T1, PDE4.
T1 construct: other: 10 μM, source human U937 cells; PDE4 at 10 μm
Nature of the assay: PDE4 activity (source human U937 cells). Format: biochemical. Particulars: for PDE4 inhibition at 10 μM (%): source human U937 cells; for PDE4 at 10 μm: Table XVb summary. The protocol:
PDE4 inhibition was measured by following a literature assay procedure (Cortizo J et al., Br J. Pharmacol., 1993, 108: 562-568. The assay method involves the following conditions.
Substrate: 1.01 μM [^3H] camp+camp
Pre-Incubation Time/Temperature: 15 minutes at 25° C.
Incubation Time/Temperature. 20 minutes at 25° C.
Incubation buffer: 50 mM Tris-HCl, pH 7.5, 5 mM MgCl2
Quantitation method: Quantitation of [^3H] Adenosine
Significance criteria: ≧50% of max stimulation or inhibition

Assay [3] relates to Oxazolone induced dermatitis. Kind of assay: Psoriasis model, oxazolone induced dermatitis. The settings on record: Table XVb summary, dermatitis model not specified. Format: in vivo, mice. The protocol:
Inhibitory Activity in Psoriasis Model Oxazolone induced dermatitis in mice was performed as described in the literature. Female Balb/c were selected in the age of 6-7 weeks for the study and 20-25 g. Mice were sensitized with oxazolone (15%) from Day 1 to day 6 by applying it on the shaved abdomen. Elicitation was done with oxazolone (2%) on the ear on day 7. Test compounds were applied topically on the ear 15 minutes and 6 hours post oxazolone application on day 7. 24 hours after oxazolone application, ear thickness is measured and ear were excised under anesthesia and weighed.

Assay [4] concerns IL-1β. Kind of assay: IL-1β inhibition (Table XVa). Format: cell-based. The settings on record: Table XVa summary.
Assay [5] has as its system TNF-α. Kind of assay: LPS induced sepsis for measurement of TNF-α inhibition in mice. Format: in vivo. The settings on record: mice; for inhibition in vivo at 50 mg/kg: Mus musculus, 1.5 h, oral, serum 90 minutes after LPS; for TNF -α in vivo (mice): Table XVa summary, unit assumed. The protocol: LPS Induced Sepsis for Measurement of TNF-α Inhibition in Mice
The LPS induced sepsis model in mice was performed as described by Les sekut et al (J Lab Clin Med 1994; 124, 813-20). Female Swiss albino mice were selected and the body weights were equivalent within each group. The mice were fasted for 20 hours with free access to water. The mice were dosed orally with the test compound suspended in vehicle containing 0.5% Tween 80 in 0.25% Carboxy-methylcellulose sodium salt. The control mice were administered the vehicle alone. After 30 minutes of oral dosing, mice were injected with 500 μg of Lipopolysaccharide (Escherichia coli, LPS: B4 from Siga) in phosphate buffer saline solution into the intraperitoneal cavity of the mice. After 90 minutes of LPS administration mice were bled via retro-orbital sinus puncture. Blood samples were stored overnight at 4° C. Serum samples were collected by centrifuging the samples at 4000 rpm for 15 minutes at 4° C. Immediately the serum samples were analyzed for TNF-α levels using commercially available mouse TNF-α ELISA kit (Amersham Biosciences) and assay was performed by the manufacturer instruction.
ED50 Measurement of TNF Alpha Inhibition in Mice Sepsis Model

The test system of assay [6] is DSS Induced colitis. Nature of the assay: IBD-DSS model (DSS induced colitis). Format: in vivo, mice. The settings on record: Table XVb summary. The protocol:
Inhibitory Activity in IBD-DSS Model
DSS Induced colitis test was performed as described by Axelsson et al., 1998. Male Balb/c mice were selected in the age of 7-8 weeks for the study. Colitis in mice was induced by providing DSS (2%) in the drinking water from day 1 to 6. Mice were dosed from Day 1 to 6 with test compound suspended in vehicle containing 0.25% carboxymethyl cellulose and 0.5% Tween 80. The control animals received vehicle alone. Body weight and disease activity index was recorded daily during the experiment. After 6 days of treatment, animals were sacrificed; colon weight and colon length was recorded.

The test system of assay [7] is TPA induced dermatitis. Kind of assay: Psoriasis model, TPA induced dermatitis. Particulars: mice, topical on the ears. It is filed as in vivo. Here is the method: Inhibitory Activity in Psoriasis Model TPA induced dermatitis in mice was performed using the protocol described in Eur J Pharmacol 507, 253-259, 2005. Balb/c mice were acclimatized to laboratory conditions 5-7 days prior to the start of the experiment. They were randomly distributed to various groups based on body weight. The baseline ear thickness of the animal's both ears using thickness gauge was measured. For each animal 20 μl of that contains 2.5 μg of TPA was applied with help of micropipettor with disposable tips. Test compound was applied topically to both inner and outer surface of the both the ears i.e. left and right ear with acetone as control after 30 minutes 6 hours and 24 hours after application of TPA (20 μl). Ear thickness was measured after 6 and 24 hours in animals, while for ear weight ears were excised under anesthesia and weighed.

In assay [8] the test system is IL-6. Kind of assay: In vitro measurement of Interleukin-6 in human PBMC. Format: cell-based. Particulars: Table XVa summary. Here is the method: In Vitro Measurement of Interleukin-6 (IL-6)
This assay determines the effect of test compounds on the production of IL-6 in human PBMC (Physiol. Res. 52, 593-598, 2003). Compounds were tested for their ability to inhibit the activity of IL-6 in human PBMC. PBMC were isolated from blood using BD Vacutainer CPT™ Cell preparation tube (BD Bio Science) and suspended in RPMI medium. The test compounds were pre-incubated with PBMC (0.5 million/incubation well) for 15 minutes at 37° C. and then stimulated with Lipopolysaccharide (Escherichia coli: B4; 1 μg/ml) for 18 hours at 37° C. in 5% CO2. The levels of IL-6 in cell culture medium were estimated using enzyme-linked immunosorbent assay performed in a 96 well format as per the procedure of the manufacturer (Cayman Chemical, Ann Arbor, USA).

Assay [9] deals with purified recombinant COX-1. Kind of assay: COX-1 enzyme based assay. Format: biochemical. The protocol: COX-1 and COX-2 enzyme based assays were carried out to check the inhibitory potential of the test compounds on the production of prostaglandin by purified recombinant COX-1/COX-2 enzyme (Proc. Nat. Acad. Sci. USA, 88, 2692-2696, 1991; J. Clin. Immunoassay 15, 116-120, 1992). In this assay, the potential of the test compound to inhibit the production of prostaglandin either by COX-1 or COX-2 from arachidonic acid (substrate) was measured. This was an enzyme based in-vitro assay to evaluate selective COX inhibition with good reproducibility.
Arachidonic acid was converted to PGH2 (Intermediate product) by COX1/COX-2 in the presence or absence of the test compound. The reaction was carried out at 37° C. and after 2 minutes it was stopped by adding 1M HCl. Intermediate product PGH2 was converted to a stable prostanoid product PGF2α by SnCl2 reduction. The amount of PGF2α produced in the reaction was inversely proportional to the COX inhibitory potential of the test compound. The prostanoid product was quantified via enzyme immunoassay (EIA) using a broadly specific antibody that binds to all the major forms of prostaglandin, using Cayman ELISA kit as per the procedure outlined by the manufacturer (Cayman Chemicals, Ann Arbor, USA).

In general, IC50 refers to the point on the concentration scale where inhibition reaches its midpoint. As a reminder, the inhibition in vivo is the relative decrease from the control value, in per cent. Consider `NS(=O)(=O)c1cccc(-c2c(-c3ccc(F)cc3)nc(C(F)(F)F)nc2-n2ccnc2)c1` [Example 80, 3-[4-(4-Fluorophenyl)-6-(1H-imidazol-1-yl)-2-(trifluoromethyl)pyrimidin-5-yl]benzenesulfonamide], for which the midpoint of inhibition in assay [1], the IC50, lay at 78 nM. In assay [2], the “PDE4 inhibition at 10 μM (%)” value worked out at 87% and the “PDE4 at 10 μm” value is 93. In addition, the “Psoriasis Ear thickness” value in assay [3] is given as 19. In assay [4], the “IL-1β at 10 μm” value is given as 36. Further, in assay [5], testing at 50 mg/kg gave an inhibition in vivo of 82.8% and the TNF -α in vivo (mice) was determined as 87%. Besides, the “IBD DAI” value in [6] came to 35. Besides, in [7], the “Psoriasis-acute TPA induced dermatitis % inhibition Ear Wt” value came to 18.9% and the “Psoriasis-acute TPA induced dermatitis % inhibition Ear thickness” value stood at 19.2%.
The molecule `CCOC(=O)C1CCN(c2nc(C(F)(F)F)nc(-c3ccc(F)cc3)c2-c2cccc(S(N)(=O)=O)c2)CC1` [Example 59, Ethyl-1-[5-(3-aminosulfonylphenyl)-6-(4-fluorophenyl)-2-(trifluoromethyl)pyrimidin-4-yl]piperidine-4-carboxylate] registered an IC50 in [1] of 64 nM. For the same molecule, in [2], the “PDE4 inhibition at 10 μM (%)” value is recorded as 93% and the “PDE4 at 10 μm” value was 87. In addition, the “IL-1β at 10 μm” value in [4] is recorded as 29. In assay [5], this molecule had an inhibition in vivo at 50 mg/kg of 87.2% and a TNF -α in vivo (mice) of 82%. In assay [8], the “IL-6 at 10 μm” value is recorded as 37. The “% Inhibition in rEnzyme Assay COX-1” value in assay [9] (10 μM) turned out to be 32%. For the same molecule, the “COX1 at 10 μm” value in assay [9] (Table XVa summary, 10 μm) is on record as 32.
